These results are taken from PubChem BioAssay (NCI).

Among the test systems are BT-549 breast; CAKI-1 renal; EKVX NSCLC; HCT-116 colon; NCI-H226 lung; NCI/ADR-RES ovarian; SK-MEL-28 melanoma; UO-31 renal.
Test in all cases: NCI-60 cell line screen, 48 h

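Exposure lasted 48 hours, with cells grown in 96-well plates and compounds tested at five concentrations. GI50: concentration for 50% inhibition of growth. Definition used: TGI = concentration required for complete inhibition of growth.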

Regarding `O=C(CC12CC3CC(CC(C3)C1)C2)NCCOCCOCCNC(=O)c1cc2c(o1)C(=O)c1ccccc1C2=O`, the GI50 in the assay on BT-549 breast is 1.23 µM; in the assay with CAKI-1 renal, 1.46 µM; in the assay with EKVX NSCLC, 1.84 µM; in the assay with HCT-116 colon, 1.58 µM; in the assay on NCI-H226 lung, 1.65 µM; in the assay with NCI/ADR-RES ovarian, 2.07 µM. The values for the GI50 in the assay with SK-MEL-28 melanoma and in the assay on UO-31 renal were 1.58 µM and 1.5 µM, respectively. Besides, the TGI came to 2.51 µM in the assay with BT-549 breast; 3.86 µM in the assay on CAKI-1 renal; 3.53 µM with EKVX NSCLC; 4.96 µM in the assay on HCT-116 colon; 3.94 µM in the assay with NCI-H226 lung; 5.87 µM in the assay with NCI/ADR-RES ovarian. Besides, the TGI in the assay with SK-MEL-28 melanoma and in the assay on UO-31 renal was 3.09 µM throughout.
On to `CCOc1ccc(NC(=O)Nc2cc(C(C)C)ccc2C)cc1`, for which the GI50 was 1.58 µM in the assay with BT-549 breast; 6.35 µM with CAKI-1 renal; 8.55 µM with EKVX NSCLC; 5.73 µM in the assay on HCT-116 colon; 10.2 µM in the assay on NCI-H226 lung; 6.96 µM in the assay with NCI/ADR-RES ovarian. The results for the GI50 with SK-MEL-28 melanoma and in the assay on UO-31 renal were 8.32 µM and 4.82 µM, respectively. Also, the TGI with BT-549 breast is 6.24 µM; with CAKI-1 renal, 28.2 µM; in the assay with EKVX NSCLC, over 96.7 µM; in the assay with HCT-116 colon, 16.1 µM; in the assay on NCI-H226 lung it was 50.1 µM; with NCI/ADR-RES ovarian it was 44.7 µM. In addition, the TGI in the assay on SK-MEL-28 melanoma is 41.8 µM; in the assay on UO-31 renal it was 16.9 µM.
Turning to `COc1ccc2c(c1)C(=O)c1c-2c(NCCCN(C)C)nc2ccccc12`, the GI50 in the assay with BT-549 breast is 21.8 µM; in the assay with CAKI-1 renal, 12.5 µM; with EKVX NSCLC it was 5.54 µM; in the assay on HCT-116 colon it was 1.25 µM; in the assay with NCI-H226 lung, 11.6 µM; with NCI/ADR-RES ovarian it was 4.03 µM. Further, the values for the GI50 in the assay with SK-MEL-28 melanoma and with UO-31 renal were 0.524 µM and 4.91 µM, respectively. For the same compound, the TGI with BT-549 breast turned out to be 62.3 µM; with CAKI-1 renal, 29.6 µM; in the assay on EKVX NSCLC it was 23.1 µM; in the assay with HCT-116 colon it was 2.65 µM; in the assay on NCI-H226 lung, 24 µM; in the assay on NCI/ADR-RES ovarian it was 19.4 µM. Besides, the TGI came out at 1.94 µM in the assay on SK-MEL-28 melanoma and 18.4 µM in the assay on UO-31 renal.
In the case of `O=C1Nc2ccc(F)c3c(OCCO)cc(-c4ccc[nH]4)c1c23`, the GI50 in the assay on BT-549 breast was 3.21 µM; with CAKI-1 renal, 0.393 µM; with HCT-116 colon it was 1.15 µM; in the assay with NCI-H226 lung, 1.47 µM; in the assay on NCI/ADR-RES ovarian, 4.01 µM; in the assay on SK-MEL-28 melanoma, 4.43 µM. In addition, the GI50 with UO-31 renal was 0.632 µM. Also, the TGI in the assay on BT-549 breast turned out to be 11.6 µM; with CAKI-1 renal it was 3.33 µM; in the assay with HCT-116 colon it was 20.4 µM; with NCI-H226 lung, 12.8 µM; with NCI/ADR-RES ovarian it was 20.1 µM; with SK-MEL-28 melanoma it was 15.1 µM. The same compound yielded a TGI in the assay with UO-31 renal of 4.05 µM.
As for `c1ccc2c(c1)O[As](O[As]1Oc3ccccc3O1)O2`, the GI50 is 1.22 µM in the assay on BT-549 breast; 2.56 µM with CAKI-1 renal; 3.17 µM in the assay with HCT-116 colon; 3.61 µM in the assay on NCI-H226 lung; 3.58 µM in the assay on NCI/ADR-RES ovarian; 3.04 µM with SK-MEL-28 melanoma. Besides, the GI50 in the assay on UO-31 renal was 1.97 µM. The TGI in the assay with BT-549 breast was 6.55 µM; in the assay with CAKI-1 renal it was 8.54 µM; in the assay with HCT-116 colon, 14.1 µM; with NCI-H226 lung, 19.7 µM; in the assay with NCI/ADR-RES ovarian it was over 100 µM; with SK-MEL-28 melanoma, 15.1 µM. In the assay on UO-31 renal, this compound had a TGI of 11.3 µM.
As for `COCCNCC(O)Cn1c2ccc(Cl)cc2c2cc(Cl)ccc21` (stereo not given), the GI50 is 2.06 µM with BT-549 breast; 1.7 µM with CAKI-1 renal; 2.25 µM in the assay with NCI-H226 lung; 2.39 µM in the assay with NCI/ADR-RES ovarian; 1.73 µM in the assay with SK-MEL-28 melanoma; 1.75 µM in the assay on UO-31 renal. The TGI in the assay with BT-549 breast was 4.36 µM; with CAKI-1 renal it was 3.36 µM; with NCI-H226 lung it was 5.92 µM; with NCI/ADR-RES ovarian, 5.59 µM; in the assay on SK-MEL-28 melanoma, 3.25 µM; in the assay on UO-31 renal, 4.17 µM.
`COc1ccc(-c2nc(-c3nc4ccc(F)cc4[nH]3)cc3c2[nH]c2ccccc23)cc1`: the GI50 in the assay with BT-549 breast is 3.18 µM; in the assay with CAKI-1 renal, 3.87 µM; in the assay with HCT-116 colon, 2.69 µM; with NCI-H226 lung, 3.12 µM; in the assay with NCI/ADR-RES ovarian, 2.77 µM; with SK-MEL-28 melanoma, 3.4 µM. The GI50 in the assay with UO-31 renal is 2.54 µM. The TGI was 9.72 µM in the assay on BT-549 breast; over 100 µM with CAKI-1 renal; 8.25 µM with HCT-116 colon; over 100 µM with NCI-H226 lung; over 100 µM in the assay with NCI/ADR-RES ovarian; over 100 µM in the assay with SK-MEL-28 melanoma. The compound further gave a TGI with UO-31 renal of 8.74 µM.
With `CCCCOC1CC2(c3ccc(OC)cc3)C(=O)c3ccccc3N2O1` (stereo not given), the TGI was over 100 µM with CAKI-1 renal; over 100 µM in the assay on EKVX NSCLC; over 100 µM with HCT-116 colon; over 10 µM in the assay on NCI-H226 lung; over 10 µM with UO-31 renal.
As to `CN(C(=O)C1CCCCC1)c1ccccc1I(=O)=O`, the GI50 in the assay with BT-549 breast is 42.4 µM; in the assay on CAKI-1 renal, 36.8 µM; in the assay on EKVX NSCLC it was 43.4 µM; in the assay on NCI-H226 lung it was over 100 µM; in the assay on NCI/ADR-RES ovarian it was 35.9 µM; with SK-MEL-28 melanoma, 22.8 µM. The GI50 in the assay with UO-31 renal is 51 µM. Also, the TGI with BT-549 breast was over 100 µM; in the assay with CAKI-1 renal it was over 100 µM; in the assay on EKVX NSCLC, over 100 µM; in the assay on NCI-H226 lung, over 100 µM; in the assay with NCI/ADR-RES ovarian, over 100 µM; with SK-MEL-28 melanoma, 56.9 µM. The compound also had a TGI with UO-31 renal of over 100 µM.
In the case of `Cc1ccc(S(=O)(=O)N(C)C)cc1[N+](=O)[O-]`, the GI50 with CAKI-1 renal, in the assay on EKVX NSCLC, in the assay on HCT-116 colon, with NCI-H226 lung, in the assay with NCI/ADR-RES ovarian and in the assay on SK-MEL-28 melanoma was over 100 µM each time. The GI50 in the assay on UO-31 renal is 21.5 µM. For the same compound, the TGI with CAKI-1 renal, in the assay on EKVX NSCLC, in the assay with HCT-116 colon, with NCI-H226 lung, in the assay with NCI/ADR-RES ovarian and in the assay with SK-MEL-28 melanoma was over 100 µM each time. The TGI in the assay on UO-31 renal was over 100 µM.
